One substance from PMC8190631, “Molecular Interactions between Two LMP2A PY Motifs of EBV and WW Domains of E3 Ubiquitin Ligase AIP4” (Life, 2021) can be followed below.

Ends that are not written are not given here.

This test concerns the target T1, WW2 domain of human AIP4 (Homo sapiens, UniProt Q96J02).
T1 construct: The gene (114 bp) encoding the WW2 domain of human AIP4; Ssp DnaB intein (pTWIN1) (N, cleaved yes); made in house
As to the kind of experiment: NMR titration (2D 1H-15N HSQC chemical shift perturbation) of WW2 domain with LMP2A constructs. It counts as binding.

T1 sequence (Q96J02 359-391): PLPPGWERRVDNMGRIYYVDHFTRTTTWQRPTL

Take PPPPY [PY peptide]: the equilibrium dissociation constant (Kd) came to 389 µM.
